# Results published in patent publication EP0073143B1, “Novel complex amido and imido derivatives of carboxyalkyl peptides and thioethers and ethers of peptides” (priority 1981, dated 1983).
# Legend:
# [1] = biological target: T1, human plasma angiotensin converting enzyme (Homo sapiens, UniProt P12821); assay: In vitro assay of inhibition of angiotensin converting enzyme; assay type: biochemical; conditions: [3H]benzoyl-Gly-His-Leu 80 nM, 37°C, 15 minutes; order of magnitude only; read-out: I50
# T1 construct: partially-purified human plasma angiotensin converting enzyme; from tissue; host or cells: human plasma
# T1 sequence (P12821 30-1232 limits assumed): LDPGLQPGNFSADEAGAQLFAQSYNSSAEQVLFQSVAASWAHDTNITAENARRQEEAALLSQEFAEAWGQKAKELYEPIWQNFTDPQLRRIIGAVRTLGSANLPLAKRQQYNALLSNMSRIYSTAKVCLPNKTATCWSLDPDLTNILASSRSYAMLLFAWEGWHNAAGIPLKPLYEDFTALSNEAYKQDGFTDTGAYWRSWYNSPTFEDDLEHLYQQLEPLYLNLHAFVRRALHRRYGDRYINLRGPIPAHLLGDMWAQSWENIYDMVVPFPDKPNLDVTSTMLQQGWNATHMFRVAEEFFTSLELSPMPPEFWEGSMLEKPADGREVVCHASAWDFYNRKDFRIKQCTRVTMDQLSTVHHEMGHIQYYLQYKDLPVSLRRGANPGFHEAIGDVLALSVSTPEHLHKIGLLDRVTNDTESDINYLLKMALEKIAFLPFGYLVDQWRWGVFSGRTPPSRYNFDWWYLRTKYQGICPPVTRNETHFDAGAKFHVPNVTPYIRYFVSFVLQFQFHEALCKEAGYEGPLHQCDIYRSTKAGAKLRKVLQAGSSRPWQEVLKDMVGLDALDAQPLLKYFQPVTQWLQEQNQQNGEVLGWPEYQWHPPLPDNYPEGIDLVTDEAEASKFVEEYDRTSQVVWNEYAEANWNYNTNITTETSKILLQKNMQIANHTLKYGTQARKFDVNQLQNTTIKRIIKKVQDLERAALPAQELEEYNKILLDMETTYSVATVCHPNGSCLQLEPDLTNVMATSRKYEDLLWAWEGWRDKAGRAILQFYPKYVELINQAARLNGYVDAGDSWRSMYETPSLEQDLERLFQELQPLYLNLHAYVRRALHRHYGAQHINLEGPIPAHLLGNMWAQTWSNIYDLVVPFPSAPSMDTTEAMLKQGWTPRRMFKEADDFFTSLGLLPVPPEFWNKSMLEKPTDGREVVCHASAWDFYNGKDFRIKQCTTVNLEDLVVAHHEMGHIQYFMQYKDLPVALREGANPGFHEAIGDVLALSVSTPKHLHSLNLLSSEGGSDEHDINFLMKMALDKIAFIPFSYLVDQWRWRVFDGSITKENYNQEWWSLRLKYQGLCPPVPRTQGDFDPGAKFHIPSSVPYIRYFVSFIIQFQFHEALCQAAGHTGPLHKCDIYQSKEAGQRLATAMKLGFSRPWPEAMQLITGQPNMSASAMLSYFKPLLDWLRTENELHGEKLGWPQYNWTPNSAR
# Protocol: To this was added 100 microliters of buffered substrate [S], [^3H]benzoyl-[…], 80 nM (25 Ci/mmole). The reaction was started by adding 100 microliters of partially-purified human plasma angiotensin converting enzyme, or 100 microliters of buffer alone. The concentration of enzyme [E] used was that required to hydrolyze 8-12% of substrate when incubated at 37°C for 15 minutes. The scintillation vials and their contents were incubated at 37°C for 15 minutes, and the reactions were stopped by adding 200 microliters of 0.5M HCI to each vial. The radioactive reaction product, [^3H]benzoyl-Gly(hippuric acid), was separated from unhydrolyzed substrate by adding and mixing (by inversion) 3 ml of Ventrex Cocktail No. 1 (Ventrex Laboratories, Inc., Portland, Maine), a fluid disclosed in copending U.S. patent application No. 184,653, filed September 6, 1980. Extractable ^3H was quantified by liquid scintillation counting. Substrate, in c.p.m., was quantified by scintillation counting of a vial containing 100 μl of buffered substrate in 5 ml of RIAfluor (New England Nuclear). The reaction mixture containing all constituents except for inhibitor was termed the control (C). The reaction mixture lacking enzyme and inhibitor was called the blank (B). Reaction mixtures containing inhibitor (varied over the range of 10^-4-10^-12M) were called the test (T) reactions. Under the conditions of this assay, the reaction obeys first order enzyme kinetics, thus the concentration of inhibitor required to inhibit the rate of hydrolysis by half (150) approximate the Ki value. The results were estimated by use of the formula: [formula] where C = control c.p.m.; B = blank c.p.m.; [S] = substrate c.p.m. The factor 100 converts fractional substrate utilization into percentage utilization, and 1/15 minute connects to percentage substrate utilization/minute. Thus, [E] is enzyme activity in percentage substrate utilization/minute. By substituting T for C, hydrolysis rates are computed for the test reaction mixtures. By comparing a given test rate against the control rate, the degree of inhibition can be computed.
# [2] = tested on: effects of 400 ng/kg of angiotensin I on mean arterial blood pressure; assay: Intravenous effectiveness: effect on the pressor response to angiotensin I in anesthetized rats; assay type: in vivo; conditions: de-iodo analog compared with the iodo compound
# Protocol: Rats (190-290 g body weight) were fasted overnight and then anesthetized with intraperitoneal pentobarbital, 50-60 mg/kg. Tracheostomy was performed and the animals were ventilated mechanically. A cannula was inserted into a femoral vein for injection of angiotensin I, and a second cannula was inserted into a common carotid artery for direct measurement of arterial blood pressure. Heparin, 1,000 units, was injected via the femoral vein to prevent coagulation. Blood pressure was measured with a pressure transducer connected to a polygraph. The rats were injected with […] of angiotensin I in 20 µl of 0.9 g% NaCI, an amount of angiotensin I sufficient to raise mean arterial blood pressure by approximately 48 mm Hg.
# After the responsiveness of a given rat to angiotensin I was established, the named compound at 0.5 micromole/kg (drug dissolved in 15 microliters of 0.9% NaCl) was given intravenously. At timed intervals, the effects of 400 ng/kg of angiotensin I on mean arterial blood pressure were tested. Results are shown below:
# Experiments were carried out using rats according to Example 32.
# [3] = Loss of activity of an aqueous solution on standing; assay type: physicochemical; conditions: fresh aqueous solution 1 mg per ml, pH of about 8, standing for as little as 30 minutes
# man = conditions: 13 patients treated, all biopsies; Hoorntje et al.; cited from earlier work
compound,measurement,setting,value
CC(N[C@@H](CC(=O)N1CCCC1)C(=O)O)C(=O)N1CCC[C@H]1C(=O)O (stereo partly drawn) [N-[L-1-carboxy-2-(carbopyrrolide)ethyl]-Alanyl-L-Proline],IC50,[1],~100 nM
CC(N[C@@H](CCC(=O)Nc1ccc(I)cc1)C(=O)O)C(=O)N1CCC[C@H]1C(=O)O (stereo partly drawn) [N-[L-1-carboxy-3-(carbo-4-iodo-anilide)propyl] Alanyl-L-Proline],IC50,[1],~1 nM
same,increase of intravenous effectiveness on removal of iodine,[2],three-fold
CC(N[C@@H](CCC(=O)Nc1ccccc1)C(=O)O)C(=O)N1CCC[C@H]1C(=O)O (stereo partly drawn) [N-[L-1-carboxy-3-(carbo-anilide)propyl]-Alanyl-L-Proline],IC50,[1],~1 nM
"C[C@H](CS)C(=O)N1CCC[C@H]1C(=O)O [SQ14225, D-3-mercapto-2-methylpropanoyl-L-proline]",activity of aqueous solution upon standing,[3],substantially less active
same,renal biopsies,man,evidence of immune complex deposition along the glomerular basement membranes
